Data taken from ChEMBL document CHEMBL5137070, “N-2-(Phenylamino) Benzamide Derivatives as Dual Inhibitors of COX-2 and Topo I Deter Gastrointestinal Cancers via Targeting Inflammation and Tumor Progression” (J Med Chem, 2022).
The source made the active and inactive calls. The rule behind the calls is not given here.

Legend:
[1] = system: RKO; assay: Induction of apoptosis in human RKO cells at 1.1 to 10 uM for 24 hrs by Annexin V-FITC/PI staining based flow cytometry; format: functional, cell-based; conditions: dose 1.1-10 µM
[2] = system: SGC-7901; assay: Antiproliferative activity against human SGC-7901 cells assessed as reduction in cell proliferation incubated for 48 hrs by MTT assay; format: functional, cell-based; conditions: SGC-7901, 48 h
[3] = system: RKO; assay: Anti-migration activity against human RKO cells assessed as decrease in cell migration rate at 0.37 uM for 48 hrs by crystalline violet staining based assay; format: functional
[4] = system: RKO; assay: Induction of apoptosis in human RKO cells assessed as increase in caspase-3 activity at 1.1 to 10 uM incubated for 36 hrs by flow cytometry; format: functional, cell-based; conditions: dose 1.1-10 µM, DDE = dose-dependent effect
[5] = system: HGC-27; assay: Induction of apoptosis in human HGC-27 cells assessed as increase in cytochrome C level at 1.1 to 10 uM incubated for 24 hrs by western blot assay; format: functional, cell-based; conditions: dose 1.1-10 µM
[6] = Toxicity in BALB/c mouse xenografted with mouse CT26.WT assessed as pathological changes in spleen at 100 mg/kg, ip twice daily and measured after 14 days by hematoxylin and eosin staining based microscopic analysis; format: organism-based; conditions: in vivo, 336 h, time 14 day
[7] = system: RAW264.7; assay: Antiinflammatory activity against LPS-stimulated mouse RAW264.7 cells assessed decrease in IL-1beta release at 6.6 uM incubated for 1 hrs followed by LPS stimulation and measured after 24 hrs by ELISA relative to control; format: functional, cell-based; conditions: time 25.0 hrs
[8] = Toxicity in BALB/c mouse xenografted with mouse CT26.WT assessed as pathological changes in lung at 100 mg/kg, ip twice daily and measured after 14 days by hematoxylin and eosin staining based microscopic analysis; format: organism-based; conditions: in vivo, 336 h, time 14 day
[9] = system: HGC-27; assay: Induction of apoptosis in human HGC-27 cells assessed as increase in caspase-3 activity at 1.1 to 10 uM incubated for 36 hrs by flow cytometry; format: functional, cell-based; conditions: dose 1.1-10 µM, DDE = dose-dependent effect
[10] = system: CT26.WT; assay: Anti-tumor activity against mouse CT26.WT xenografted in BALB/c mouse assessed as decrease in tumor weight at 100 mg/kg, ip twice daily and measured upto 14 days relative to control; format: functional, organism-based; conditions: time <= 14.0 day
[11] = system: RKO; assay: Induction of apoptosis in human RKO cells assessed as increase in cytochrome C level at 1.1 to 10 uM incubated for 24 hrs by western blot assay; format: functional, cell-based; conditions: dose 1.1-10 µM
[12] = Toxicity in BALB/c mouse xenografted with mouse CT26.WT assessed as pathological changes in heart at 100 mg/kg, ip twice daily and measured after 14 days by hematoxylin and eosin staining based microscopic analysis; format: organism-based; conditions: in vivo, 336 h, time 14 day
[13] = system: HGC-27; assay: Anti-metastasis activity against human HGC-27 cells assessed as reduction in MMP-9 expression level at 3.3 to 10 uM for 24 hrs by western blot analysis; format: functional, cell-based; conditions: dose 3.3-10 µM
[14] = system: HGC-27; assay: Antiproliferative activity against human HGC-27 cells assessed as cell viability at <= 0.41 uM for 48 hrs by MTT assay; format: functional; conditions: up to 0.41 µM
[15] = system: RKO; assay: Induction of mitochondrial membrane loss in human RKO at 1.1 to 10 uM and measured after 36 hrs by TMRE dye based flow cytometry; format: functional, cell-based; conditions: dose 1.1-10 µM, DDE = dose-dependent effect
[16] = system: RKO; assay: Induction of apoptosis in human RKO cells assessed as increase in caspase-3 activity at 10 uM incubated for 36 hrs by flow cytometry (Rvb= 1.08%); format: functional
[17] = system: RKO; assay: Induction of apoptosis in human RKO cells assessed as increase in caspase-3 activity at 3.3 uM incubated for 36 hrs by flow cytometry (Rvb= 1.08%); format: functional
[18] = system: RKO; assay: Anti-metastasis activity against human RKO cells assessed as reduction in MMP-9 expression level at 3.3 to 10 uM for 24 hrs by western blot analysis; format: functional, cell-based; conditions: dose 3.3-10 µM
[19] = system: RAW264.7; assay: Inhibition of LPS induced NO production in mouse RAW264.7 cells at 6.6 uM incubated for 1 hrs followed by LPS stimulation and measured after 24 hrs by Griess reagent based assay; format: functional, cell-based; conditions: time 25.0 hrs
[20] = Half in Sprague-Dawley rat at 100 mg/kg, ip and measured upto 8 hrs by LC-MS/MS analysis; format: ADME, organism-based; conditions: in vivo
[21] = Acute toxicity in Kunming mouse assessed as lethal dose at 100 mg/kg,ip and measured upto 14 days; format: organism-based; conditions: in vivo, time < 14 day
[22] = Acute toxicity in Kunming mouse assessed as behavioral changes at 100 mg/kg,ip and measured upto 14 days; format: organism-based; conditions: in vivo, 336 h, time < 14 day
[23] = system: HGC-27; assay: Induction of apoptosis in human HGC-27 cells at 1.1 to 10 uM for 24 hrs by Annexin V-FITC/PI staining based flow cytometry; format: functional, cell-based; conditions: dose 1.1-10 µM
[24] = system: HGC-27; assay: Effect on cell morphology in human HGC-27 cells assessed as contracted nucleus at 10 uM incubated for 48 hrs by giemsa staining based microscopic analysis; format: functional
[25] = system: HGC-27; assay: Induction of apoptosis in human HGC-27 cells assessed as increase in cleaved caspase-3 expression at 1.1 to 10 uM incubated for 24 hrs by western blot assay; format: functional, cell-based; conditions: dose 1.1-10 µM

Structure (SMILES): Cc1c(Cl)cccc1Nc1ccc(F)cc1C(=O)NCc1ccc(O)c(O)c1
- Activity [1]: Active
- IC50 [2]: 15 µM
- Activity [3]: Active
- Activity [4]: Dde
- Activity [5]: Active
- Activity [6]: Non-Toxic
- Activity [7]: Active
- Activity [8]: Non-Toxic
- Activity [9]: Dde
- Activity [10]: Active
- Activity [11]: Active
- Activity [12]: Non-Toxic
- Activity [13]: Active
- Activity [14]: >80%
- Activity [15]: Dde
- Activity [16]: 55.94%
- Activity [17]: 55.24%
- Activity [18]: Active
- inhibition [19]: Active
- half-life [20]: 1.56 h
- LD50 at 336 h [21]: > 100 mg/kg
- Activity [22]: Non-Toxic
- Activity [23]: Active
- Activity [24]: Active
- Activity [25]: Active
